Assay in all cases: DTP human tumour cell line panel, 48 h
Test [1] concerns A498 renal.
Test [2] concerns COLO 205 colon.
For test [3], the system named is HOP-92 NSCLC.
Test [4] deals with IGROV1 ovarian.
In test [5] the test system is KM20L2 colon.
The test system of test [6] is MALME-3M melanoma.
The test system of test [7] is SK-MEL-28 melanoma.
Test [8] deals with SW-620 colon.
Test [9] deals with XF 498 CNS.
Test [10] has as its system DU-145 prostate.

This is an account of results in PubChem BioAssay (NCI).

The structures appear in SMILES notation.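 48-hour exposure; five concentrations; linearly interpolated endpoints. GI50: concentration for 50% inhibition of growth. The concentration for full growth arrest is given as TGI.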

For orientation: TGI means the concentration at which net growth stops. Lower therefore signals greater sensitivity of the cells. On to `COC(=O)C1(F)C(=O)NC(=O)NC1OC` (centres undefined), for which the concentration for total growth inhibition (TGI) in test [1], in test [2], in test [3], in test [4], in [5] and in [6] was > 100 µM throughout. Besides, the TGI in [7], in test [8] and in [9] was > 100 µM throughout.

For `C[N+](C)=c1nc(N2CCOCC2)ss1`, the TGI in test [1], in test [3], in [4], in test [7], in test [8] and in [9] was > 100 µM in each case.

Turning to `NC(=O)c1c[se]c(C2OC(COP(=O)(O)CP(=O)(O)OCC3OC(n4cnc5c(N)ncnc54)C(O)C3O)C(O)C2O)n1` (centres undefined), the TGI in [1], in [2], in test [3], in test [4], in [5] and in test [6] was > 100 µM in each case. Further, the TGI in test [7], in test [8] and in test [9] was > 100 µM throughout.

In the case of `CC1(C)OC(COCCOCCCCCO)C(COCCOCCCCCO)O1` (centres undefined), the TGI in test [1], in [2], in test [4], in test [5], in test [6] and in [7] was > 100 µM each time. Moreover, in test [8], the TGI was > 100 µM.

On to `COC(=O)c1cc2c3c(ccc2[nH]1)N(C(=O)c1cc2c4c(ccc2[nH]1)N(C(=O)c1cc2c5c(ccc2[nH]1)N(C(N)=O)CC5)CC4)CC3`, for which the TGI was 4.4 µM in test [1]; > 36 µM in [2]; 7.31 µM in test [3]; 20.5 µM in test [4]; > 100 µM in test [5]; > 24.2 µM in [6]. The TGI in test [7] and in test [8] was > 100 µM throughout.

Take `Cc1ccccc1NC(=O)C(=O)CC(=O)c1ccc([N+](=O)[O-])cc1`: the TGI in [2], in test [3], in test [4], in [5], in test [6] and in test [7] was > 100 µM in each case. Further, the TGI in test [8] and in test [9] was > 100 µM throughout.

On to `COc1cc2cccc(N=Cc3c(Br)ccc(OC)c3OC(C)C)c2cc1OC`, for which the TGI in test [1], in [2], in test [4], in test [5], in test [6] and in test [7] was > 100 µM in each case. Moreover, the TGI in test [8] and in test [9] was > 100 µM in each case.

Take `O=[N+]([O-])C1C2C=CC(C2)[C@H]1c1ccc(Cl)cc1Cl` (some centres undefined): the TGI in test [1], in test [3], in test [6], in test [7], in test [8] and in [9] was > 100 µM each time.

As for `COc1cc([C@H]2c3[nH]c4ccccc4c3C[C@H]3COC(=O)N32)cc(OC)c1O`, the TGI in test [1] is 20.9 µM; in test [2] it was 37.5 µM; in [3], > 88 µM; in test [4], > 86.3 µM; in test [6], > 100 µM; in [7] it was > 80 µM. Besides, the values for the TGI in test [8] and in test [9] were > 70 µM and 43 µM, respectively.

Consider `CC(C)(C)c1cc(CCC(=O)Nc2ccc(Cl)cc2Cl)nc(N)n1`, for which the TGI in [2], in test [3], in [4], in test [5], in test [6] and in test [7] was > 100 µM each time. Further, the TGI in test [8] was > 100 µM.

In the case of `O=C1C(c2ccccc2)=C(c2ccccc2)[C@H](c2ccccc2)[C@]1(Cc1nnn(-c2ccc([N+](=O)[O-])cc2)c1N1CCOCC1)c1ccccc1`, the TGI in test [1] was > 37.5 µM; in [2], > 37.5 µM; in test [3], 2.25 µM; in [4], > 37.5 µM; in [5] it was > 37.5 µM; in [7] it was > 37.5 µM. In addition, the values for the TGI in test [8] and in test [9] were > 37.5 µM and 26.5 µM, respectively.

With `O=C(O)[C@@H]1CCCC[C@@H]1C(=O)N(C1CCCCC1)C1CCCCC1`, the TGI in [1], in test [2], in test [3], in test [4], in [5] and in test [6] was > 100 µM each time. The TGI in test [7] and in [8] was > 100 µM each time.

For the compound `COc1ccc(CC2=NCCc3cc(OC)c(OC)cc32)cc1Br`, the TGI in [1] is 95.1 µM; in test [2] it was 37.4 µM; in test [3], 33.7 µM; in test [5], 99.3 µM; in [6] it was 70.4 µM; in [7], > 100 µM. Besides, the TGI in [8] is > 100 µM; in test [9] it was 53.1 µM.

Take `COc1nc2c(c(O)c(C)c(=O)n2OC2OC(COC(C)=O)C(OC(C)=O)C(OC(C)=O)C2OC(C)=O)c(=O)n1C` (centres undefined): the TGI in test [2], in [4], in test [5], in test [7], in test [8] and in test [9] was > 100 µM throughout.

Regarding `C[C@@]12CCCC(=O)N1[C@@H](CO)C(c1ccccc1)O2` (some centres undefined), the TGI in test [1], in test [2], in test [3], in [4], in [5] and in test [6] was > 100 µM in each case. Also, the TGI in test [7], in test [8] and in test [9] was > 100 µM each time.

Turning to `CCOC(=O)C[C@@]12CCCNC1(C)CCc1ccccc12` (some centres undefined), the TGI in test [2], in [4], in [5], in test [6], in [8] and in test [9] was > 100 µM in each case.

On to `COc1ccc(C2NCCc3c2[nH]c2ccccc32)cc1` (centres undefined), for which the TGI in test [2], in test [3], in test [4], in [5], in test [6] and in [7] was > 100 µM each time. For the same compound, the TGI in [8] and in [9] was > 100 µM in each case.

Take `CC1(C)CC(=O)c2c(oc3cc(O)c(O)cc23)C1`: the TGI in test [1] is > 100 µM; in test [2], > 100 µM; in test [3], 95.2 µM; in test [4], > 100 µM; in test [5], > 100 µM; in test [6] it was 94.6 µM. The compound also came in with a TGI in test [8] of 37.2 µM.

Broadly, the GI50 is the concentration that inhibits growth by half. `C=CC(=O)Nc1cccc(Nc2nc(Nc3ccc(OCCOC(F)F)cc3)ncc2F)c1`: the GI50 in test [1] is 0.408 µM; in [2], 4.17 µM; in [10], 1.96 µM; in test [3], 2.28 µM; in test [4] it was 1.88 µM; in test [6] it was 2.49 µM. Further, the GI50 in test [7] was 7.36 µM; in [8] it was 3.27 µM. Also, the TGI is 1.83 µM in test [1]; 17.5 µM in test [2]; > 100 µM in test [10]; 6.75 µM in test [3]; 9.61 µM in [4]; 35.1 µM in [6]. Moreover, the TGI in [7] and in [8] was > 100 µM in each case.

Consider `CCc1cccc(CC)c1/C=C/c1cncc(C(=O)NC)c1`, for which the GI50 in test [1] was 8.68 µM; in test [2], 13.8 µM; in [10], 16.5 µM; in test [3], 1.27 µM; in test [4], > 21.7 µM; in [6], 10.9 µM. Besides, the GI50 in test [7] was 13.4 µM; in test [8], 10.5 µM. The TGI in test [1] was > 22.2 µM; in [2], > 25 µM; in test [10], > 25 µM; in test [3], > 25 µM; in test [4], > 25 µM; in test [6], > 25 µM. Besides, the TGI in test [7] and in test [8] was > 25 µM throughout.

Take `CC[P+]1(CC)CCCC1`: the TGI in [2], in [4], in test [5], in test [6], in test [7] and in test [8] was > 100 µM throughout. Also, the total growth inhibition concentration (TGI) in test [9] was > 100 µM.

As to `NC(=O)c1cc(I)ccc1NC(=O)COc1ccccc1`, the GI50 in test [1] was 1.27 µM; in test [2], 0.323 µM; in [10], 0.457 µM; in test [3] it was 2.98 µM; in test [4] it was 2.34 µM; in [6] it was 7.28 µM. Further, the GI50 was 2.57 µM in test [7] and 0.432 µM in test [8]. For the same compound, the TGI was 7.26 µM in [1]; 1.97 µM in test [2]; 32.2 µM in test [10]; 21.4 µM in [3]; > 100 µM in test [4]; > 100 µM in [6]. For the same compound, the TGI in test [7] and in [8] was > 100 µM each time.

As to `O=c1oc2ccc(F)cc2c(=O)n1-c1ccc(Br)cc1F`, the GI50 in [1] was 0.184 µM; in test [2], 4.03 µM; in [10], 0.781 µM; in [3] it was 0.168 µM; in [4], 0.444 µM; in [6], 0.317 µM. Also, the GI50 was 0.373 µM in test [7] and 1.11 µM in test [8]. In addition, the TGI in [1] stood at 0.72 µM; in test [2], 15.5 µM; in test [10], 22.8 µM; in [3], 0.528 µM; in test [4], 22.7 µM; in test [6] it was 2.03 µM. In addition, the TGI worked out at 2.48 µM in test [7] and 25.5 µM in test [8].

Consider `Cn1cnc([N+](=O)[O-])c1Sc1nc(N)nc2nc[nH]c12`, for which the GI50 was > 23.7 µM in test [1]; 15 µM in [2]; 2.91 µM in test [10]; 3.1 µM in test [3]; 14 µM in test [4]; 13 µM in test [6]. For the same compound, the GI50 in [7] was > 42.5 µM; in [8], 7.43 µM. In addition, the TGI in test [1] is > 100 µM; in test [2] it was > 74.5 µM; in [10], > 100 µM; in [3], > 100 µM; in test [4], > 100 µM; in test [6] it was > 100 µM. In addition, the TGI in test [7] and in test [8] was > 100 µM each time.

For `CC(=O)[CH-]C(=O)c1ccccc1.CC(=O)[CH-]C(=O)c1ccccc1.[CH2-]CCC.[CH2-]CCC.[Sn+4]`, the GI50 in [1] is 1.66 µM; in [2], 0.984 µM; in test [4], 1.57 µM; in test [5] it was 1.99 µM; in [6] it was 0.63 µM; in test [8], 0.283 µM. In addition, the TGI in test [1] is 3.74 µM; in test [2], 2.47 µM; in test [4], 3.28 µM; in test [5], 3.94 µM; in [6], 1.91 µM; in test [8], 0.964 µM.

`Cc1nnc(N=Nc2c(O)[nH]c3ccccc23)n1N`: the TGI in [1], in test [2], in [4], in [5], in [6] and in [7] was > 100 µM each time. Further, the TGI in [8] and in test [9] was > 100 µM throughout.

Take `COC(=O)[C@H](Cc1ccccc1)NC(=O)c1csc([C@@H](C[C@H](C(C)C)N(C)C(=O)[C@@H](NC(=O)[C@H]2CCCN2C)C2CC2)OC(C)=O)n1`: the GI50 in test [1] was 1.53 µM; in test [2], 0.456 µM; in test [10], 0.346 µM; in test [3] it was 0.463 µM; in test [4] it was 0.327 µM; in [6], 5.49 µM. In addition, the GI50 in test [7] is 2.48 µM; in test [8] it was 0.235 µM. The total growth inhibition concentration (TGI) was 15.2 µM in test [1]; 4.29 µM in [2]; > 33.3 µM in [10]; > 9.56 µM in [3]; > 33.3 µM in [4]; > 33.3 µM in test [6]. The TGI in test [7] and in test [8] was > 33.3 µM each time.
